ChEMBL document CHEMBL5523725, “Fragment-Based Anti-inflammatory Agent Design and Target Identification: Discovery of AF-45 as an IRAK4 Inhibitor to Treat Ulcerative Colitis and Acute Lung Injury” (J Med Chem, 2024)
The source made the active and inactive calls. The rule behind the calls is not given here.

Key:
[1] = system: J774.A1; assay: cells; settings: Mus musculus
Description: Antiinflammatory activity in LPS-induced mouse J774.A1 cells assessed as inhibition of IL-6 release pretreated for 30 mins followed by LPS stimulation and measured after 24 hrs by ELISA

[2] = target: Mitogen-activated protein kinase 14 (Homo sapiens) (UniProt Q16539); assay: Inhibition of p38alpha (unknown origin) at 10 uM relative to control
Mitogen-activated protein kinase 14 (Homo sapiens), sequence (Q16539 whole entry): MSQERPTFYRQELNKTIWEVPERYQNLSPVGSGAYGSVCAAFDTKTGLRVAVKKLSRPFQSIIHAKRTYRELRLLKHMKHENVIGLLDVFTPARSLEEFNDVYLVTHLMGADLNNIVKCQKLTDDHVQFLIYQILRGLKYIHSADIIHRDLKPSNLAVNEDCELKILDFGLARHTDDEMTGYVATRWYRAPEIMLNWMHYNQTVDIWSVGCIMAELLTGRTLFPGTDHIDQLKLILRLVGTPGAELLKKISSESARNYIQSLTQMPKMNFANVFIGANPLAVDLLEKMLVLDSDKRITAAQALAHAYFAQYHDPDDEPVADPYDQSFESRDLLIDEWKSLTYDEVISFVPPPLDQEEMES

[3] = system: Mus musculus; assay: Antiinflammatory activity in LPS induced C57BL/6 mouse model of acute lung injury assessed as reduction in inflammatory exudation in lung at 20 mg/kg, ip preadministered for 30 mins followed by LPS administration and measured after 6 hrs by H and E staining based analysis; format: functional, organism-based; settings: time 6.5 hrs
[4] = system: Mus musculus; assay: Antiinflammatory activity in LPS induced C57BL/6 mouse model of acute lung injury assessed as inhibition of IL-6 release in serum at 20 to 40 mg/kg, ip preadministered for 30 mins followed by LPS administration and measured after 6 hrs by ELISA; format: functional, organism-based; settings: dose 20-40 mg/kg, time 6.5 hrs
[5] = system: Mus musculus; assay: Antiinflammatory activity in male C57BL/6 mouse model of DSS-induced ulcerative colitis assessed as restoration of protein status at 10 to 20 mg/kg, po administered for 11 days with subsequent administration of DSS for 8 days by H and E staining based analysis; format: functional, organism-based; settings: dose 10-20 mg/kg, time 11.0 day
[6] = Stability of compound in simulated intestinal fluid at 10 mg/ml incubated for 8 hrs and measured every 2 hrs hy HPLC analysis; format: ADME; settings: simulated gi fluid
[7] = system: Mus musculus; assay: In vivo binding affinity to IRAK4 in DSS-induced ulcerative colitis C57BL/6 mouse colon assessed as thermal stabilization at 10 to 20 mg/kg, po administered for 11 days with subsequent administration of DSS for 8 days by CETSA; format: functional, organism-based; settings: dose 10-20 mg/kg, time 11.0 day
[8] = system: Mus musculus; assay: Antiinflammatory activity in LPS induced C57BL/6 mouse model of acute lung injury assessed as reduction in alveolar wall thickening at 20 mg/kg, ip preadministered for 30 mins followed by LPS administration and measured after 6 hrs by H and E staining based analysis; format: functional, organism-based; settings: time 6.5 hrs
[9] = system: RAW264.7; assay: Antiinflammatory activity in LPS-induced mouse RAW264.7 cells assessed as inhibition of IL-6 mRNA transcription pretreated for 2 hrs followed by LPS stimulation and measured after 6 hrs by RT-qPCR analysis; format: functional, cell-based; settings: dose 5-10 µM, time 8.0 hrs
[10] = system: Mus musculus; assay: Antiinflammatory activity in LPS induced C57BL/6 mouse model of acute lung injury assessed as inhibition of IL-6 release in BALF at 20 to 40 mg/kg, ip preadministered for 30 mins followed by LPS administration and measured after 6 hrs by ELISA; format: functional, organism-based; settings: dose 20-40 mg/kg, time 6.5 hrs
[11] = target: Cyclin-dependent kinase 16 (Homo sapiens) (UniProt Q00536); assay: Inhibition of human PCTAIREI assessed as residual activity at 10 uM by Eurofins kinase profiler method relative to control
Cyclin-dependent kinase 16 (Homo sapiens), sequence (Q00536 whole entry): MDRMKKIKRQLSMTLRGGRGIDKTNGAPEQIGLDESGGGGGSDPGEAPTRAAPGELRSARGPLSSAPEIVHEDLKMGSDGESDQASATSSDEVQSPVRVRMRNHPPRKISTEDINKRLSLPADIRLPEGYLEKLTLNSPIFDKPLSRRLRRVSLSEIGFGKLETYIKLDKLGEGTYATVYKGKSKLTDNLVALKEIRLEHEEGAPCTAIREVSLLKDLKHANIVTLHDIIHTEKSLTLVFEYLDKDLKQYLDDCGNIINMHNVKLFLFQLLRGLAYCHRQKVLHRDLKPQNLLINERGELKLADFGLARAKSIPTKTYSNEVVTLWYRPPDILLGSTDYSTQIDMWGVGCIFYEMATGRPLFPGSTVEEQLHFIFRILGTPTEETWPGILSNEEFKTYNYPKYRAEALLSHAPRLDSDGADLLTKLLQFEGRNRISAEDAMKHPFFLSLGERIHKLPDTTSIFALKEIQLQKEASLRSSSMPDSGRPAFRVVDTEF

[12] = target: T1, Inhibitor of nuclear factor kappa-B kinase subunit beta (Homo sapiens) (UniProt O14920); assay: Inhibition of IKKbeta (unknown origin) at 10 uM relative to control
T1 sequence (whole entry): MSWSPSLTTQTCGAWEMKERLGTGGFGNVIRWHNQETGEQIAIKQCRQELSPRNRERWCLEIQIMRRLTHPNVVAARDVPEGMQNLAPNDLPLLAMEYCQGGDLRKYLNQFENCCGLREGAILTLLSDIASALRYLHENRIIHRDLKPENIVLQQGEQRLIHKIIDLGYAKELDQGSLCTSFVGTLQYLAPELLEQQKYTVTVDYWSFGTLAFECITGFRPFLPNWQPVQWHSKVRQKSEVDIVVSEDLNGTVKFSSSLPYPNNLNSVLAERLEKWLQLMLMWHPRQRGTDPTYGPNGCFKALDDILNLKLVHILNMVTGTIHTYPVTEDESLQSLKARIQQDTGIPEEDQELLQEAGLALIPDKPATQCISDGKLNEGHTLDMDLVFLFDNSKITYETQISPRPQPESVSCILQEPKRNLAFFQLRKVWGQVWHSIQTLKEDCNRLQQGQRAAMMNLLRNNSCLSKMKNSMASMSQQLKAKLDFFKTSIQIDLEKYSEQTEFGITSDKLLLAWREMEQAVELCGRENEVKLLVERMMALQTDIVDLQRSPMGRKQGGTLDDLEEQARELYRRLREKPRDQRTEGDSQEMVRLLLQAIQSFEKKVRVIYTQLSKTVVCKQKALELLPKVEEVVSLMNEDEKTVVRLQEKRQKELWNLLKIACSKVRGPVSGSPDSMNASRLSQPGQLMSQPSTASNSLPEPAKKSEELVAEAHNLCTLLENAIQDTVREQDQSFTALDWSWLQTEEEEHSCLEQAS

[13] = system: RAW264.7; assay: Inhibition of NFkappaB signaling pathway in LPS-induced mouse RAW264.7 cells assessed as inhibition of p65 phosphorylation by Western blot analysis; format: cell-based; settings: dose 2.5-10 µM
[14] = Cmax in male Sprague-Dawley rat at 1 mg/kg, iv administered via tail vein and measured upto 24 hrs; format: ADME, organism-based; settings: in vivo
[15] = system: Mus musculus; assay: Antiinflammatory activity in LPS induced C57BL/6 mouse model of acute lung injury assessed as reduction in number of macrophages in spleen at 20 to 40 mg/kg, ip preadministered for 30 mins followed by LPS administration and measured after 6 hrs by F4/80 labeling based immunohistochemical analysis; format: functional, organism-based; settings: dose 20-40 mg/kg, time 6.5 hrs
[16] = AUC (0 to t) in male Sprague-Dawley rat at 1 mg/kg, iv administered via tail vein and measured upto 24 hrs; format: ADME, organism-based; settings: in vivo
[17] = system: Mus musculus; assay: Antiinflammatory activity in male C57BL/6 mouse model of DSS-induced ulcerative colitis assessed as reduction in IL-6 level in serum at 20 mg/kg, po administered for 11 days with subsequent administration of DSS for 8 days by ELISA; format: functional, organism-based; settings: time 11.0 day
[18] = target: T2, Interleukin-1 receptor-associated kinase 4 (Mus musculus) (UniProt Q8R4K2); assay: Thermal stabilization of IRAK4 in mouse RAW264.7 cells at 10 uM measured after 4 hrs by CETSA; format: cell-based
T2 sequence (whole entry): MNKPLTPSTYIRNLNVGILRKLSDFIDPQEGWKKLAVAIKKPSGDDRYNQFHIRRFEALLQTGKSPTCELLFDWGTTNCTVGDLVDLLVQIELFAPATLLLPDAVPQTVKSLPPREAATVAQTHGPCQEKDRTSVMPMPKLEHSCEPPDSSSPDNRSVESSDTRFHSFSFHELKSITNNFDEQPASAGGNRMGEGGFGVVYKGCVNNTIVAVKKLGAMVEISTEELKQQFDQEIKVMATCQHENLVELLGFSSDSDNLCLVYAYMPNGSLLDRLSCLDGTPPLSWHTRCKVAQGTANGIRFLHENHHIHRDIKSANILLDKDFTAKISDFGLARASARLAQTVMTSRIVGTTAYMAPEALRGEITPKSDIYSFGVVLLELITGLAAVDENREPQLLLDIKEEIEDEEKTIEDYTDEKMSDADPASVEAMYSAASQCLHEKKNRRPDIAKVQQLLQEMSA

[19] = system: Mus musculus; assay: Antiinflammatory activity in male C57BL/6 mouse model of DSS-induced ulcerative colitis assessed as reduction in DAI score at 20 mg/kg, po administered for 11 days with subsequent administration of DSS for 8 days; format: functional, organism-based; settings: time 11.0 day

IC50 [1]: 1540 nM | inhibition [2]: 0.03% | Stability [6]: Stable | Activity [11]: 70% | inhibition [12]: -1.64% | Cmax [14]: 6260 ng/mL | AUC(0-t) at 24 h [16]: 3800 ng·h/mL | Activity [18]: Active
Compound: COc1cc2c(O[C@H]3CC[C@@H](N)CC3)ncnc2cc1OCc1ccccc1
Activity [3]: Active | Activity [4]: Active | Activity [5]: Active | Activity [7]: Active | Activity [8]: Active | Activity [9]: Dose-Dependent Effect | Activity [10]: Active | inhibition [13]: Dose-Dependent Effect | Activity [15]: Active | Activity [17]: Active | Activity [19]: Active
